According to article PMC9001717, “Tyrosine 121 moves revealing a ligandable pocket that couples catalysis to ATP-binding in serine racemase” (Communications Biology, 2022):
Like-named read-outs stand apart in the source and are kept apart here.

Assays:
[1] = test system: human SR; parameters: method as in ref 57,58 (a number printed in a supplementary file, which may have a reference list of its own: not looked up in the article's list); conditions: upon addition of ATP; cited from earlier work
[2] = target: T1, human SR (hSR) (Homo sapiens, UniProt Q9GZT4, C2D/C6D); assay: Thermal denaturation assay; type: binding
T1 construct: (His)6 (C); made in house; host or cells: E. coli (BL21-CodonPlus (DE3)-RIL for the mutants; the wild type is only 'as described[33]')
T1 sequence (Q9GZT4 1-340 C2D/C6D): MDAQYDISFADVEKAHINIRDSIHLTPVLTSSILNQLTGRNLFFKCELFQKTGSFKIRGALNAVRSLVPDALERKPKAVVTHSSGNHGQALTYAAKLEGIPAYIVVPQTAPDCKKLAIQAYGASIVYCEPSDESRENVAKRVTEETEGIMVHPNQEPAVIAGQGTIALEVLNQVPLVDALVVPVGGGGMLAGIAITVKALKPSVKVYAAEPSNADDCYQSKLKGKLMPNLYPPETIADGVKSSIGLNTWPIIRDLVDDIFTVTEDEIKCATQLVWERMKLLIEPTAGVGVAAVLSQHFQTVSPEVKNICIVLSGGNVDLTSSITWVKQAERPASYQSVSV
Description: The melting temperature (Tm) of SR was determined in the presence and absence of malonate (disodium salt) and 1 mM ATP (disodium salt, Fisher) in a buffer containing 100 mM CHES pH 8.5, 1 mM MgCl2, and 10 µM PLP. The reaction mixture was prepared in 96-well plates containing final concentrations of 2 µM SR, 5X SYPRO Orange dye (from 5000X concentrate, ThermoFisher), and a 6-point 1:3 dilution series of malonate (0–1 mM). Each condition was assessed with and without 1 mM ATP in the buffer. Thermal denaturation analysis was performed in triplicate by transferring 10 µL reaction mixture to 384-well plates for use in a BioRad CFX384 Touch Real-Time PCR Detection System. Programme: 10 min hold at 25 °C, plate read, increase by increments of 0.5 °C up to 95 °C; each step accompanied by a 15 s hold and plate read. Data were analysed using GraphPad Prism.

[3] = test system: hSR; parameters: method as in PMID 25331425; conditions: cited from earlier work
[4] = test system: Yeast SR; parameters: method as in ref 4 (a number printed in a supplementary file, which may have a reference list of its own: not looked up in the article's list); conditions: ref 4; cited from earlier work
[5] = test system: slime mould (D. discoideum) SR; parameters: method as in ref 56 (a number printed in a supplementary file, which may have a reference list of its own: not looked up in the article's list); conditions: ref 56; cited from earlier work
[6] = target: T2, human serine racemase (hSR) WT (Homo sapiens, UniProt Q9GZT4, C2D/C6D); assay: L- to D-Ser racemisation coupled luminescence assay, wild-type hSR; type: biochemical; conditions: malonate used as control compound
T2 construct: (His)6 (C); made in house; host or cells: E. coli (BL21-CodonPlus (DE3)-RIL for the mutants; the wild type is only 'as described[33]')
T2 sequence (Q9GZT4 1-340 C2D/C6D): T1 sequence (Q9GZT4 1-340 C2D/C6D)
Description: The ability of compounds to inhibit the L to D-Ser racemisation activity of hSR was measured in a coupled assay. In the assay, hSR converts L-Ser to D-Ser. The D-Ser is then converted into pyruvate, ammonia and hydrogen peroxide using D-amino acid oxidase. Next, the hydrogen peroxide reacts with luminol in the presence of horseradish peroxidase, producing luminescent by-product. In the assay malonate was used as a control compound and gave 100% inhibition – results for XChem compounds are shown in Supplementary Table 4 and in supplementary Fig. 12. The activity of the wild-type and the three Y121 mutants, Y121F, Y121A and Y121G was measured at six ATP concentrations (1 mM, 0.5 mM, 0.25 mM, 0.125 mM, 0.062 mM and 0.031 mM) as shown in supplementary Fig. 11.
The inhibition of hSR activity was measured using a luminescence assay in a 384 well plate (flat bottom white, Corning). Initially, each well contained 100 mM Tris pH 8.5, 0.05% Pluronic f-127 (VWR), 1 mM MgCl2, 1 mM ATP (disodium salt, Fisher), 10 µM PLP, 0.3 nM hSR, 2 mM L-serine and compound at 16.67 mM to 0.0077 mM (see supplementary Fig. 12) and had 16.7% DMSO concentration. The plate was incubated at RT with shaking for 30 min. After this, the reaction was stopped using a detection mix. The final well concentration was 100 mM Tris pH 8.5, 0.05% Pluronic f-127 (VWR), 1 mM EDTA (Fisher), 0.25 U/mL horseradish peroxidase, 0.5 U/mL D-amino acid oxidase and 25 µM Luminol (Insight Biotechnology) and 8.4% DMSO. The plate was left to incubate covered and shaking for 10 min. The plate was then read using a PHERAstar (BMG) plate reader. For the ATP dependant activity data, the method was kept the same, except for varying the concentration of ATP.
The relative light units read (x) on the PHERAstar were converted into percentage inhibition (PI) using the equation: PI=100x[1−(x−Min)/(Max−Min)] where min is negative control (100% inhibition) and max is the positive control (no inhibition). The IC50s were calculated with GraphPad (Prism 8.3.1, Graphpad Software, San Diego CA).

[7] = target: T1, human SR (hSR); parameters: method as in PMID 18812225; conditions: read-out: inhibition constant (Ki); cited from earlier work
[8] = test system: mouse SR; parameters: method as in PMID 28533113; conditions: cited from earlier work
[9] = test system: SR; conditions: cited from earlier work
[10] = test system: SR; parameters: method as in supplementary refs 2, 11-32; conditions: literature summary; ref supplementary refs 2, 11-32; cited from earlier work
[11] = 1 mM of the additive alone, reference Tm 47.3 °C

| Compound | increase of D-serine elimination [1] [fold] | increase of L-serine elimination [1] [fold] | increase of L-serine racemisation [1] [fold] | ΔTm [2, 11] | increase of hSR affinity for malonate ([3]; effect of ATP on malonate binding to the catalytic site) | increase of both reactions (racemisation and elimination) [4] | increase of elimination [5] [fold] | increase of racemisation [5] [fold] | inhibition by control compound [6] [%] | Ki [7] [µM] | IC50 [8] [µM] | ΔTm ([2]; 1 mM ATP and 1 mM malonate together) | malonate concentration required for the cooperative stabilising effect of ATP and malonate ([2]; with 1 mM ATP) [mM] | IC50 ([9]; ref 48) [µM] | IC50 ([9]; ref 49) [µM] | Ki ([9]; review of SR inhibitors) [µM] | Inhibition mode [10] | increase of the affinity of hSR for ATP ([3]; allosteric effect of malonate on the ATP site) [fold] |
| --- | --- | --- | --- | --- | --- | --- | --- | --- | --- | --- | --- | --- | --- | --- | --- | --- | --- | --- |
| Nc1ncnc2c1ncn2[C@@H]1O[C@H](COP(=O)(O)OP(=O)(O)OP(=O)(O)O)[C@@H](O)[C@H]1O [ATP, Adenosine triphosphate] | 4 | 31 | ~2 | −1.3 °C | at least 9 fold | less than 2 fold |  |  |  |  |  |  |  |  |  |  |  |  |
| Nc1ncnc2c1ncn2[C@@H]1O[C@H](COP(=O)(O)OP(=O)([O-])OP(=O)([O-])O)[C@@H](O)[C@H]1O.[Mg+2] [Mg-ATP] |  |  |  |  |  |  | 6 | 2.5 |  |  |  |  |  |  |  |  |  |  |
| O=C(O)CC(=O)O [malonate] |  |  |  | +1.2 °C |  |  |  |  | 100 | 33 | 770 | +3.7 °C | > 0.1 | 67 | 449 | < 100 | Competitive | 100 |
